For assay [1], the target named is T1, c-Kit(V654A) (Homo sapiens, UniProt P10721, V654A).
T1 construct: recombinant human c-Kit, amino acids 544-end containing the V654A mutation; GST (N)
Put plainly: c-Kit(V654A) assay (33P-ATP filter binding kinase assay). Conditions: recombinant human c-Kit aa 544-end V654A, ATP 200 μM. It is filed as biochemical. As for the experimental part: c-Kit(V654A) (N-terminal GST-tagged, recombinant human c-Kit, amino acids 544-end containing the V654A mutation) is incubated with 8 mM MOPS pH 7.0, 0.2 mM EDTA, 250 μM GGMEDIYEFMGGKKK, 10 mM MgAcetate and [gamma-33P-ATP] (specific activity approx. 500 cpm/pmol, concentration 200 μM). The reaction is initiated by the addition of the MgATP mix. After incubation for 40 minutes at room temperature, the reaction is stopped by the addition of 3% phosphoric acid solution. 10 μL of the reaction is then spotted onto a P30 filtermat and washed three times for 5 minutes in 75 mM phosphoric acid and once in methanol prior to drying and scintillation counting.

The target of assay [2] is T2, GIST430/654 cell line expressing mutated constitutively active cKIT receptor tyrosine kinase (Δ560-576 deletion and V654A point mutation) (Homo sapiens, UniProt P10721, DEL560-576/V654A).
T2 construct: endogenous in cells; host or cells: GIST430/654 cells
T2 sequence (P10721 with tags, fused parts or gaps DEL560-576/V654A): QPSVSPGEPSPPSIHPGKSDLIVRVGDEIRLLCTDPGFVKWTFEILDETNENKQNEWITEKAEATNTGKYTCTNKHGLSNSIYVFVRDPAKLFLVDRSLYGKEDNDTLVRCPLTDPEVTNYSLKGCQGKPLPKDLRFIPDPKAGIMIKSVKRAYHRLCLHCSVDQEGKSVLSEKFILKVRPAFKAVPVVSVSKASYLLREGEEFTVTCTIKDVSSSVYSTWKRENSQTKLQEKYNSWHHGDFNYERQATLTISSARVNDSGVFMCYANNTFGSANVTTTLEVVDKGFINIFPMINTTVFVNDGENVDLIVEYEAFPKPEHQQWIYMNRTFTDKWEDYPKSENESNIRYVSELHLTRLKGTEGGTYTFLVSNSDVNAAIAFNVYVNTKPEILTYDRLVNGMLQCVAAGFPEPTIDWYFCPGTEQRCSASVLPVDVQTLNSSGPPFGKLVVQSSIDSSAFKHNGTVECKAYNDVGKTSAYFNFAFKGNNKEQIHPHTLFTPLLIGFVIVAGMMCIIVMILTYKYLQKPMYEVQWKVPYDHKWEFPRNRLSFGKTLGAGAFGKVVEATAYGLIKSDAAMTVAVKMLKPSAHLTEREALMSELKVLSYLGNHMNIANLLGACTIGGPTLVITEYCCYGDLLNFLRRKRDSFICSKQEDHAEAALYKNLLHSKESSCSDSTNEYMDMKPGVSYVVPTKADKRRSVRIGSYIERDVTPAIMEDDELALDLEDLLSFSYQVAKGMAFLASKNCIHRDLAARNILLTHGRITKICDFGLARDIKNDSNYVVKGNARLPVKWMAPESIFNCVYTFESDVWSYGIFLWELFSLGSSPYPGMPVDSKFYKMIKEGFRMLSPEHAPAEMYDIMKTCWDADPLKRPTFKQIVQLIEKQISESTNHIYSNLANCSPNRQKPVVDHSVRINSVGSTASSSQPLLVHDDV
Put plainly: Cellular cKIT autophosphorylation (phospho-Y307-cKIT, Luminex bead assay) in GIST430/654 cells. The format is cell-based. The following applies: compounds 45 min, read-out: GIST 430/654 IC50. The procedure:
Assay Principle for Cellular Testing of cKIT Mutant Inhibitors
The GIST430 cell line expressing constitutive active cKIT receptor tyrosine kinase (Δ560-576 deletion) and the Imatinib resistant GIST430/654 cell line expressing mutated constitutively active cKIT receptor tyrosine kinase (Δ560-576 deletion and V654A point mutation) were employed for assessing cellular potency of compounds. Cellular activity of mutant cKIT was determined by the degree of cKIT autophosphorylation at tyrosine 307 using a Luminex-based bead assay. GIST430 cells were plated with 22,000 cells per well of a 96-well plate in 100 μl medium (85% IMDM/15% FCS) and GIST430/654 cells were plated with 25,000 cells per well of a 96-well plate in 100 μl medium (85% IMDM/15% FCS supplemented with 100 nM Imatinib). At the following day compounds were added in a serial dilution for 45 min. Then, cells were lysed with 90 μl lysis buffer (20 mM Hepes pH 7.5, 200 mM NaCl, 1.5 mM MgCl2×6H2O, 0.4 mM EDTA, 1% Triton-X-100, 1% Phosphatase-Inhibitor II, 20 mM β-Glycerolphosphat, 0.1% Protease-Inhibitor Cocktail III, 0.01% Benzonase) and lysates were cleared by centrifugation through a 96-well filter plate (0.65 μm). Samples were incubated with Luminex-beads which were coupled with an anti-total cKIT antibody overnight at 4° C. under gentle agitation. For detection of phospho-Y307-cKIT a phosphospecific antibody and a species-specific PE-labeled secondary antibody were added. The amount of phospho-Y307-cKIT was determined in a Luminex 200 instrument measuring 100 events per well within 60 seconds.
Counts from samples treated with compounds were calculated as percent of control from solvent treated (0.3% DMSO) samples. Dose-response curves were fitted and IC50 values were determined using Genedata Screener software.

pIC50: −log10 of the molar value.

T1 sequence (P10721 544-976 V654A): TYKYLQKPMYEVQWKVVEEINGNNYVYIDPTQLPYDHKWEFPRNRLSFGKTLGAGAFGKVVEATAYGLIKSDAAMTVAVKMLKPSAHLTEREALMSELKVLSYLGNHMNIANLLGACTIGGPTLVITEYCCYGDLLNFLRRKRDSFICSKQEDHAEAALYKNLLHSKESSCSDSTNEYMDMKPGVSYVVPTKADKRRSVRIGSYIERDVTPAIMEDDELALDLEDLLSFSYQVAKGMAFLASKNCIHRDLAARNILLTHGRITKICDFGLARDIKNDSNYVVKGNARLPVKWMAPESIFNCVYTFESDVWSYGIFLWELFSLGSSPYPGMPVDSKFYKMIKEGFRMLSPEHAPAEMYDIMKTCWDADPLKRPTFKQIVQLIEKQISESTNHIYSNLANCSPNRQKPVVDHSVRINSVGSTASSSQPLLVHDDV

Regarding `COc1ccn2c(-c3cc(NCc4ccc(-c5cnn(C)c5)c(F)c4)ncn3)cnc2c1` [A29, N-{[3-fluoro-4-(1-methyl-1H-pyrazol-4-yl)phenyl]methyl}-6-{7-methoxyimidazo[1,2-a]pyridin-3-yl}pyrimidin-4-amine], the pIC50 in assay [1] was 7.82; in assay [2], 6.92.

As to `COc1ccn2c(-c3cc(NCc4ccc(-c5cnn(CCO)c5)cc4)ncn3)cnc2c1` [A30, 2-[4-(4-{[6-(7-methoxy-imidazo[1,2-a]pyridin-3-yl)-pyrimidin-4-ylamino]-methyl}-phenyl)-pyrazol-1-yl]-ethanol], the pIC50 in assay [1] is 7.57; in assay [2], 6.74.

`COc1ccn2c(-c3cc(NCc4ccc(-c5cn(C)nn5)cc4)ncn3)cnc2c1` [A31, [6-(7-methoxy-imidazo[1,2-a]pyridin-3-yl)-pyrimidin-4-yl]-[4-(1-methyl-1H-[1,2,3]triazol-4-yl)-benzyl]-amine]: the pIC50 is 7.31 in assay [1] and 6.09 in assay [2].

Regarding `COc1ccn2c(-c3cc(NCc4ccc(-c5cnn(C6COC6)c5)cc4)ncn3)cnc2c1` [A33, 6-{7-methoxyimidazo[1,2-a]pyridin-3-yl}-N-({4-[1-(oxetan-3-yl)-1H-pyrazol-4-yl]phenyl}methyl)pyrimidin-4-amine], the figures for the pIC50 in assay [1] and in assay [2] were 7.80 and 6.92, respectively.

On to `COc1ccn2c(-c3cc(NCc4ccc(-c5nccc(OC)n5)cc4)ncn3)cnc2c1` [A34, 6-{7-methoxyimidazo[1,2-a]pyridin-3-yl}-N-{[4-(4-methoxypyrimidin-2-yl)phenyl]methyl}pyrimidin-4-amine], for which the pIC50 in assay [1] was 7.28; in assay [2], 6.13.

For the compound `COc1ccn2c(-c3cc(NCc4ccc(-c5cn(C)nc5N)cc4)ncn3)cnc2c1` [A35, [4-(3-amino-1-methyl-1H-pyrazol-4-yl)-benzyl]-[6-(7-methoxy-imidazo[1,2-a]pyridin-3-yl)-pyrimidin-4-yl]-amine], the pIC50 is 7.15 in assay [1] and 6.05 in assay [2].

Take `COc1ccn2c(-c3cc(NCc4ccc(-c5nnn(C)n5)cc4)ncn3)cnc2c1` [A37, 6-{7-methoxyimidazo[1,2-a]pyridin-3-yl}-N-{[4-(2-methyl-2H-1,2,3,4-tetrazol-5-yl)phenyl]methyl}pyrimidin-4-amine]: the pIC50 in assay [1] is 7.82; in assay [2], 6.66.

As for `COc1ccn2c(-c3cc(NCc4ccc(N5CC6CCC(C5)O6)cc4)ncn3)cnc2c1` [A38, [6-(7-methoxy-imidazo[1,2-a]pyridin-3-yl)-pyrimidin-4-yl]-[4-(8-oxa-3-aza-bicyclo[3.2.1]oct-3-yl)-benzyl]-amine], the pIC50 is 7.26 in assay [1] and 6.15 in assay [2].

Consider `COc1ccn2c(-c3cc(NCc4ccc(-c5cncn5C)cc4)ncn3)cnc2c1` [A39, 6-{7-methoxyimidazo[1,2-a]pyridin-3-yl}-N-{[4-(1-methyl-1H-imidazol-5-yl)phenyl]methyl}pyrimidin-4-amine], for which the pIC50 in assay [1] is 7.57; in assay [2], 6.19.

With `COc1ccn2c(-c3cc(NCc4ccc(-c5ccc(C)nn5)cc4)ncn3)cnc2c1` [A40, 6-{7-methoxyimidazo[1,2-a]pyridin-3-yl}-N-{[4-(6-methylpyridazin-3-yl)phenyl]methyl}pyrimidin-4-amine], the pIC50 is 7.44 in assay [1] and 5.96 in assay [2].

`COc1ccn2c(-c3cc(NCc4ccc(-c5cnc(C)nc5)cc4)ncn3)cnc2c1` [A41, 6-{7-methoxyimidazo[1,2-a]pyridin-3-yl}-N-{[4-(2-methylpyrimidin-5-yl)phenyl]methyl}pyrimidin-4-amine]: the pIC50 in assay [1] was 7.34; in assay [2] it was 5.80.

In the case of `COc1ccn2c(-c3cc(NCc4ccc(-c5cnn(C)n5)cn4)ncn3)cnc2c1` [A44, [6-(7-methoxy-imidazo[1,2-a]pyridin-3-yl)-pyrimidin-4-yl]-[5-(2-methyl-2H-[1,2,3]triazol-4-yl)-pyridin-2-ylmethyl]-amine], the values for the pIC50 in assay [1] and in assay [2] were 7.57 and 6.29, respectively.

Turning to `COc1ccn2c(-c3cc(NCc4ccc(-c5nc(C)no5)cc4)ncn3)cnc2c1` [A47, 6-{7-methoxyimidazo[1,2-a]pyridin-3-yl}-N-{[4-(3-methyl-1,2,4-oxadiazol-5-yl)phenyl]methyl}pyrimidin-4-amine], the pIC50 in assay [1] is 8.00; in assay [2], 6.72.

Regarding `COc1ccn2c(-c3cc(NCc4ccc(-c5cnc(C)o5)cc4)ncn3)cnc2c1` [A48, [6-(7-methoxy-imidazo[1,2-a]pyridin-3-yl)-pyrimidin-4-yl]-[4-(2-methyl-oxazol-5-yl)-benzyl]-amine], the values for the pIC50 in assay [1] and in assay [2] were 7.60 and 6.33, respectively.

Turning to `COc1ccn2c(-c3cc(NCc4ccc(-c5cnn(C6CC6)c5)cc4)ncn3)cnc2c1` [A49, [4-(1-cyclopropyl-1H-pyrazol-4-yl)-benzyl]-[6-(7-methoxy-imidazo[1,2-a]pyridin-3-yl)-pyrimidin-4-yl]-amine], the pIC50 is 8.14 in assay [1] and 7.05 in assay [2].

For `COc1ccn2c(-c3cc(NCc4ccc(-c5cn(C)nc5OC)cc4)ncn3)cnc2c1` [A50, N-{[4-(3-methoxy-1-methyl-1H-pyrazol-4-yl)phenyl]methyl}-6-{7-methoxyimidazo[1,2-a]pyridin-3-yl}pyrimidin-4-amine], the results for the pIC50 in assay [1] and in assay [2] were 7.60 and 6.31, respectively.

On to `COc1ccn2c(-c3cc(NCc4ccc(-c5cc(C)no5)cc4)ncn3)cnc2c1` [A52, [6-(7-methoxy-imidazo[1,2-a]pyridin-3-yl)-pyrimidin-4-yl]-[4-(3-methyl-isoxazol-5-yl)-benzyl]-amine], for which the pIC50 in assay [1] is 8.24; in assay [2] it was 6.82.

Turning to `COc1ccn2c(-c3cc(NCc4ccc(-c5ncc(C)o5)cc4)ncn3)cnc2c1` [A53, [6-(7-methoxy-imidazo[1,2-a]pyridin-3-yl)-pyrimidin-4-yl]-[4-(5-methyl-oxazol-2-yl)-benzyl]-amine], the pIC50 in assay [1] was 8.20; in assay [2], 6.47.

As for `Cn1cc(-c2ccc(CNc3cc(-c4cnc5cc(OC6CCOCC6)ccn45)ncn3)cc2)cn1` [A55, [4-(1-methyl-1H-pyrazol-4-yl)-benzyl]-{6-[7-(tetrahydro-pyran-4-yloxy)-imidazo[1,2-a]pyridin-3-yl]-pyrimidin-4-yl}-amine], the pIC50 in assay [1] is 7.66; in assay [2], 6.19.

`Cn1cc(-c2ccc(CNc3cc(-c4cnc5cc(OC6CCOC6)ccn45)ncn3)cc2)cn1` (centres unmarked) [A57, [4-(1-methyl-1H-pyrazol-4-yl)-benzyl]-{6-[7-(tetrahydro-furan-3-yloxy)-imidazo[1,2-a]pyridin-3-yl]-pyrimidin-4-yl}-amine]: the pIC50 in assay [1] is 7.96; in assay [2], 6.57.

As for `Cn1cc(-c2ccc(CNc3cc(-c4cnc5cc(OCC6CC6)ccn45)ncn3)cc2)cn1` [A58, 6-[7-(cyclopropylmethoxy)imidazo[1,2-a]pyridin-3-yl]-N-{[4-(1-methyl-1H-pyrazol-4-yl)phenyl]methyl}pyrimidin-4-amine], the pIC50 in assay [1] was 7.72; in assay [2], 6.82.

Take `CN(C)CCOc1ccn2c(-c3cc(NCc4ccc(-c5cnn(C)c5)cc4)ncn3)cnc2c1` [A59, 6-{7-[2-(dimethylamino)ethoxy]imidazo[1,2-a]pyridin-3-yl}-N-{[4-(1-methyl-1H-pyrazol-4-yl)phenyl]methyl}pyrimidin-4-amine]: the results for the pIC50 in assay [1] and in assay [2] were 7.96 and 7.09, respectively.
